What was measured:
[1] = molecular target: T1, mfT1R2a/mfT1R3 (Oryzias latipes, UniProt Q2MHK2+Q2MHK5); experiment: Ca2+ mobilization dose-response assay, stable cells expressing mfT1R2a/mfT1R3 with G16gust44
T1 sequence (Q2MHK5 20-819): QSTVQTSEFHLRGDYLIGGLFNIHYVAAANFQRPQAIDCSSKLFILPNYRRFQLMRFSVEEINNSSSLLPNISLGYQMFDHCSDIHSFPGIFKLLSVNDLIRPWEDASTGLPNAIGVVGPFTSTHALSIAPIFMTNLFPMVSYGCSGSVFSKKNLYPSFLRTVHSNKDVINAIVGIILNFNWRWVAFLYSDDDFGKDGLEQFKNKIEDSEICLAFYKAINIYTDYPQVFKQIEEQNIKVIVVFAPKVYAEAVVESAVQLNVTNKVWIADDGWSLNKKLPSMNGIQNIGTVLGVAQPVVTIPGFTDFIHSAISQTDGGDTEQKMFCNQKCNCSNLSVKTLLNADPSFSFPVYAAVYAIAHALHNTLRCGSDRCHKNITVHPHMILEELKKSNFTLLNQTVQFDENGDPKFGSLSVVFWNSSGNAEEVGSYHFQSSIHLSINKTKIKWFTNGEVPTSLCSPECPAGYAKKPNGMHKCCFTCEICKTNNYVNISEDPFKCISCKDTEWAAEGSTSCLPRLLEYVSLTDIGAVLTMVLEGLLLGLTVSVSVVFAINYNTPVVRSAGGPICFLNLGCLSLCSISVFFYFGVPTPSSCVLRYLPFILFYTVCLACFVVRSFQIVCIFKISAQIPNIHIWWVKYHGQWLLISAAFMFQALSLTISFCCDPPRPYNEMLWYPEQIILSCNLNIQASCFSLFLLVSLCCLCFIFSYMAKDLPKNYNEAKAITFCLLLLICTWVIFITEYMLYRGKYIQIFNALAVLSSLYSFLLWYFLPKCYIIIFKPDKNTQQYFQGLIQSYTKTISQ
T1 sequence (Q2MHK2 20-853): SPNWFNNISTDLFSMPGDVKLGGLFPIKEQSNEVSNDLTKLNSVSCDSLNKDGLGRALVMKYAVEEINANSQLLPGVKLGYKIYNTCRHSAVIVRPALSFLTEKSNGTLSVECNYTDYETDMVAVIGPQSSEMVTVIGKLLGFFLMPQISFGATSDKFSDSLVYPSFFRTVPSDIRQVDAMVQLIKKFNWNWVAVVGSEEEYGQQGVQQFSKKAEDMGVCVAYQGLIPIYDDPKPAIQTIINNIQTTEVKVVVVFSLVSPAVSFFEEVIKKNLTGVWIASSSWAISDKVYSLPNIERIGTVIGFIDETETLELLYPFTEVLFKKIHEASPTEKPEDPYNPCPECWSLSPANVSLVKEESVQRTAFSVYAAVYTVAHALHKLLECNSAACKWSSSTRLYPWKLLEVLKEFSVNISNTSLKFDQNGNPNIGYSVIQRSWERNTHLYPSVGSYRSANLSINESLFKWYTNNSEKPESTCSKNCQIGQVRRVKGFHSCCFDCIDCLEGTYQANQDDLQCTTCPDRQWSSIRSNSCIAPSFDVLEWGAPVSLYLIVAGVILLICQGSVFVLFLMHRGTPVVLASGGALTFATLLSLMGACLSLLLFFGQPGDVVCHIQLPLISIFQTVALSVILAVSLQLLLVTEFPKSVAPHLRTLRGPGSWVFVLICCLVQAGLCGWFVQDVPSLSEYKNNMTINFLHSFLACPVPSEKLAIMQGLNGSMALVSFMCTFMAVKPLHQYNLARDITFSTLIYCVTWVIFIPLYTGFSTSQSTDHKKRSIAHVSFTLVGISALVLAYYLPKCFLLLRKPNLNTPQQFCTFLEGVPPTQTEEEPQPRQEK
Method: (§1) The buffers with lower Cl^− were prepared by progressively replacing NaCl, KCl, CaCl2 and MgCl2 in the buffer with gluconate equivalents[20]. The pH was adjusted to 7.4 with NaOH. Ligands were diluted with the assay buffers at the desired concentrations.
Measurements of the responses of the cells by cell-based assay based on the intracellular Ca^2+ mobilization were carried out as described previously with some modifications[20],[34],[46],[47]. […] The cells were seeded in 96-well plates (clear-bottomed CellBIND surface plate, Corning, Glendale, AZ, USA) coated with ε-poly-L-lysine (Cosmo Bio, Tokyo, Japan) at approximately 70,000 cells per well. After 20 h, the medium was removed and replaced with high Cl^− buffer. After 3 h 30 min incubation at 27 °C, cells were loaded with 5 µM calcium-indicator dye Fluo-8 AM (AAT Bioquest, Sunnyvale, CA, USA) diluted in high Cl^− buffer. After incubation for 30 min at 27 °C, the cells were washed with buffers containing appropriate concentrations of Cl^−. The cellular assay was initiated after 3–5 min of resting and was completed within 5 min. The measurements were made using FlexStation 3 (Molecular Devices, Sunnyvale, CA, USA) at 27 °C. Fluorescence changes (i.e., excitation at 485 nm and emission at 525 nm with a cutoff at 515 nm) were monitored at 2 s intervals. A 100-µL aliquot of assay buffer supplemented with 2 × ligands was added at 20 s, and scanning was continued for an additional 40 s. The response of each well was determined as ∆RFU (delta relative fluorescent units), which was calculated as (maximum fluorescent value)—(minimum fluorescent value). […] Such normalized data from more than three independent experiments are reported as the mean ± standard error of the mean (SEM). Dose‒response fitting curves were calculated by Prism 9 (GraphPad Software, San Diego, CA) using nonlinear regression (log(agonist) vs. response—variable slope), based on the integrated data from the several independent experiments.

[2] = system: mfT1R2b E260K/mfT1R3; type: cell-based, medaka fish; details: 10 mM vs high Cl- buffer
Method: as §1
Measurements of the responses of the cells by cell-based assay based on the intracellular Ca^2+ mobilization were carried out as described previously with some modifications[20],[34],[46],[47]. […] The cells were seeded in 96-well plates (clear-bottomed CellBIND surface plate, Corning, Glendale, AZ, USA) coated with ε-poly-L-lysine (Cosmo Bio, Tokyo, Japan) at approximately 70,000 cells per well. After 20 h, the medium was removed and replaced with high Cl^− buffer. […] Fluorescence changes (i.e., excitation at 485 nm and emission at 525 nm with a cutoff at 515 nm) were monitored at 2 s intervals. […] The response of each well was determined as ∆RFU (delta relative fluorescent units), which was calculated as (maximum fluorescent value)—(minimum fluorescent value). […] Dose‒response fitting curves were calculated by Prism 9 (GraphPad Software, San Diego, CA) using nonlinear regression (log(agonist) vs. response—variable slope), based on the integrated data from the several independent experiments.

SMILES	EC50 in 10 mM Cl- buffer relative to high Cl- buffer ([1]; 10 mM vs 141.4 mM Cl- buffer) [times higher]	effect of [Cl-]o on sensitivity [2]	[Cl-]o at which sensitivity is clearly reduced ([1]; agonist L-Gln, buffers with 10-141.4 mM Cl-)	[Cl-]o required for saturation of the sensitivity ([1]; sensitivity to L-Gln, Fig. 2A,D) [mM]
C[C@H](N)C(=O)O [L-Ala, L-alanine]	~7	hardly affected	–	–
[Cl-].[Na+] [NaCl]	–	–	below 80 mM	40 to 80

Source: article PMC10539361, “Allosteric modulation of the fish taste receptor type 1 (T1R) family by the extracellular chloride ion” (Scientific Reports, 2023)
